Molecular target: T1, b-Raf(V600E) (Homo sapiens, UniProt P15056, V600E)
T1 construct: made in house
Assay: Raf/Mek Amplified Luminescence Proximity Homogeneous Assay (Alpha Screen), b-Raf(V600E)
Format: biochemical
Details: mutant b-Raf(V600E), read-out: mut-b-RAF (IC50 in uM)
Method: Assay buffer: 50 mM Tris, pH 7.5, 15 mM MgCl2, 0.01% BSA, 1 mM DTT Stop buffer: 60 mM EDTA, 0.01% Tween20 Bead buffer: 50 mM Tris, pH 7.5, 0.01% Tween20
b-Raf(V600E), active: Recombinant in-house material biotinylated Mek, kinase dead: Recombinant in-house material Alpha Screen detection kit PerkinElmer, #6760617R Anti phospho-MEK½ Cell signaling #9121 384 well assay plates: White Greiner plates, #781207
b-Raf(V600E) approximately 4 pM c-Raf approximately 4 nM biotinylated Mek, Kinase dead approximately 10 nM
Pre-incubation time with compounds 60 min at room temperature Reaction time 1 or 3 hours at room temperature
Raf and biotinylated Mek, kinase dead, were combined at 2× final concentrations in assay buffer (50 mM Tris, pH 7.5, 15 mM MgCl2, 0.01% BSA and 1 mM DTT) and dispensed 10 μl per well in assay plates (Greiner white 384 well assay plates #781207) containing 0.5 μl of 40× of a raf kinase inhibitor test compound diluted in 100% DMSO. The plate was incubated for 60 min at room temperature.
The Raf kinase activity reaction was started by the addition of 10 μl per well of 2×ATP diluted in assay buffer. After 3 hours (bRaf(V600E)) or 1 hour (c-Raf), the reactions were stopped with the addition of 10 μl of stop reagent (60 mM EDTA). Phosphorylated product was measured using a rabbit anti-p-MEK (Cell Signaling, #9121) antibody and the Alpha Screen IgG (Protein A) detection Kit (PerkinElmer #6760617R), by the addition of 30 μL to the well of a mixture of the antibody (1:2000 dilution) and detection beads (1:2000 dilution of both beads) in bead buffer (50 mM Tris, pH 7.5, 0.01% Tween20). The additions were carried out under dark conditions to protect the detection beads from light. A lid was placed on top of the plate and incubated for 1 hour at room temperature, then the luminescence was read on a PerkinElmer Envision instrument. The concentration of each compound for 50% inhibition (IC50) was calculated by non-linear regression using XL Fit data analysis software.
The Raf/Mek Amplified Luminescence Proximity Homogeneous Assay described was used to generate the luminescence and mutant b-Raf(V600E) IC50 data for selected Raf Kinase Inhibitors shown in Table 1 above.

T1 sequence (P15056 whole entry V600E): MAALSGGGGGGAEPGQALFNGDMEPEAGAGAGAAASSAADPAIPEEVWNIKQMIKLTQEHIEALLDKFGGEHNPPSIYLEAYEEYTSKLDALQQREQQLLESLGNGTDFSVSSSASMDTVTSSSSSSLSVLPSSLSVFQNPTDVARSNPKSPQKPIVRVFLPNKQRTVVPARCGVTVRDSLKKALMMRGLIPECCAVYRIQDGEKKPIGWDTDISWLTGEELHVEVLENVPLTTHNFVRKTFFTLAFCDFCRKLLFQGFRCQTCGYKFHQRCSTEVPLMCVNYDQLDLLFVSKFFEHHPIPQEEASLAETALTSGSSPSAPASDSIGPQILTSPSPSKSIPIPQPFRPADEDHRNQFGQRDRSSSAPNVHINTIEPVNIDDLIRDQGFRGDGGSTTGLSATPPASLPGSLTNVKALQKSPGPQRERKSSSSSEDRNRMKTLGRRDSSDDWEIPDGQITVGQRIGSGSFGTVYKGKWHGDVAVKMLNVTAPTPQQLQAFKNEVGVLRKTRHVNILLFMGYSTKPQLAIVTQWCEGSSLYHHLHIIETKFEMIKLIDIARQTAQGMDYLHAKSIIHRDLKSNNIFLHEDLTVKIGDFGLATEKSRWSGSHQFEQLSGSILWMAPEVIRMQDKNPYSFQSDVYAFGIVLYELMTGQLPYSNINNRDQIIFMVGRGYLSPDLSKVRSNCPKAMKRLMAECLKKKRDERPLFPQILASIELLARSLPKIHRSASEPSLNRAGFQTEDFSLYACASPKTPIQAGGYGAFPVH

Row | SMILES | IC50 [nM]
1 | COc1cc(-c2[nH]c(-c3ccccc3F)nc2-c2ccncc2)cnc1N [Compound 137, 5-(2-(2-fluorophenyl)-4-(pyridin-4-yl)-1H-imidazol-5-yl)-3-methoxypyridin-2-amine] | 1.7
2 | COc1cc(-c2[nH]c(C(C)(C)C)nc2-c2ccnc(N[C@@H](C)CNC(=O)[C@@H](C)OC)n2)cnc1N [Compound 208, (R)-N-((S)-2-(4-(5-(6-amino-5-methoxypyridin-3-yl)-2-tert-butyl-1H-imidazol-4-yl)pyrimidin-2-ylamino)propyl)-2-methoxypropanamide] | 1.4
3 | COC(=O)N[C@@H](C)CNc1nccc(-c2[nH]c(C(C)(C)C)nc2-c2cnc(N)c(OC(F)F)c2)n1 [Compound 265, (S)-methyl 1-(4-(4-(6-amino-5-(difluoromethoxy)pyridin-3-yl)-2-tert-butyl-1H-imidazol-5-yl)pyrimidin-2-ylamino)propan-2-ylcarbamate] | 0.01
4 | COc1cc(-c2nc(-c3ccc(F)cc3)oc2-c2ccncc2)cnc1N [Example 13, 5-(2-(4-fluorophenyl)-5-(pyridin-4-yl)oxazol-4-yl)-3-methoxypyridin-2-amine] | 0.5
5 | COc1cc(-c2nc(-c3ccn(C)n3)[nH]c2-c2ccncc2)cnc1N [Compound 119, 3-methoxy-5-(2-(1-methyl-1H-pyrazol-3-yl)-5-(pyridin-4-yl)-1H-imidazol-4-yl)pyridin-2-amine] | 1.9
6 | COc1cc(-c2nc(C(C)(C)C)[nH]c2-c2ccnc(Nc3ccc4c(c3)OC(F)(F)O4)n2)cnc1N [Compound 189, 4-(4-(6-amino-5-methoxypyridin-3-yl)-2-tert-butyl-1H-imidazol-5-yl)-N-(2,2-difluorobenzo[d][1,3]dioxol-5-yl)pyrimidin-2-amine] | 0.3
7 | c1ccc(-c2nc(-c3ccncc3)c(-c3cnc4[nH]ncc4c3)[nH]2)cc1 [Compound 49, 5-(2-phenyl-4-(pyridin-4-yl)-1H-imidazol-5-yl)-1H-pyrazolo[3,4-b]pyridine] | 22.2
8 | COCC(=O)N[C@@H](C)CNc1nccc(-c2oc(-c3ccc(C(F)(F)F)cc3)nc2-c2cnc(N)c(OC)n2)n1 [Compound 229, (S)-N-(1-(4-(4-(5-amino-6-methoxypyrazin-2-yl)-2-(4-(trifluoromethyl)phenyl)-oxazol-5-yl)pyrimidin-2-ylamino)propan-2-yl)-2-methoxyacetamide] | 3
9 | COc1cc(-c2nc(C(C)(C)C)[nH]c2-c2ccnc(NC[C@H](C)NC(C)=O)n2)cnc1N [Compound 218, (S)-N-(1-(4-(4-(6-amino-5-methoxypyridin-3-yl)-2-tert-butyl-1H-imidazol-5-yl)pyrimidin-2-ylamino)propan-2-yl)acetamide] | 0.3
10 | COc1cc(-c2nc(-c3ccc(F)cc3)sc2-c2ccncc2)cnc1N [Example 16, 5-(2-(4-fluorophenyl)-5-(pyridin-4-yl)thiazol-4-yl)-3-methoxypyridin-2-amine] | 14.3
11 | COc1cc(Nc2nccc(-c3[nH]c(C(C)(C)C)nc3-c3cnc(N)c(OC)n3)n2)ccn1 [Example 9, 4-(4-(5-amino-6-methoxypyrazin-2-yl)-2-tert-butyl-1H-imidazol-5-yl)-N-(2-methoxypyridin-4-yl)pyrimidin-2-amine] | 0.1
12 | COCC(=O)N[C@@H](C)CNc1nccc(-c2[nH]c(C(C)(C)C)nc2-c2cnc(N)c(OC)c2)n1 [Compound 205, (S)-N-(1-(4-(4-(6-amino-5-methoxypyridin-3-yl)-2-tert-butyl-1H-imidazol-5-yl)pyrimidin-2-ylamino)propan-2-yl)-2-methoxyacetamide] | 0.4
13 | COc1cc(-c2[nH]c(-c3cccc(C#N)c3)nc2-c2ccncc2)cnc1N [Compound 102, 3-(5-(6-amino-5-methoxypyridin-3-yl)-4-(pyridin-4-yl)-1H-imidazol-2-yl)benzonitrile] | 1.1
14 | Fc1ccc(-c2nc(-c3ccncc3)c(-c3cnc4[nH]ccc4c3)[nH]2)cc1 [Compound 144, 5-(2-(4-fluorophenyl)-4-(pyridin-4-yl)-1H-imidazol-5-yl)-1H-pyrrolo[2,3-b]pyridine] | 3
15 | COc1cc(-c2[nH]c(-c3cccc(-c4ccncc4)c3)nc2-c2ccncc2)cnc1N [Compound 170, 3-methoxy-5-(4-(pyridin-4-yl)-2-(3-(pyridin-4-yl)phenyl)-1H-imidazol-5-yl)pyridin-2-amine] | 0.2
16 | COc1cc(-c2[nH]c(-c3cccc(C(C)C)c3)nc2-c2ccncc2)cnc1N [Compound 115, 5-(2-(3-isopropylphenyl)-4-(pyridin-4-yl)-1H-imidazol-5-yl)-3-methoxypyridin-2-amine] | 3
17 | COc1nc(-c2nc(C(C)(C)C)[nH]c2-c2ccnc(NC[C@H](C)NC(=O)[C@H](C)OC)n2)cnc1N [Compound 242, (S)-N-((S)-1-(4-(4-(5-amino-6-methoxypyrazin-2-yl)-2-tert-butyl-1H-imidazol-5-yl)pyrimidin-2-ylamino)propan-2-yl)-2-methoxypropanamide] | 0.2
18 | Nc1ccc(-c2[nH]c(-c3ccccc3)nc2-c2ccncc2)cn1 [Compound 29, 5-(2-phenyl-4-(pyridin-4-yl)-1H-imidazol-5-yl)pyridin-2-amine] | 260

Continued, values first:

Row | IC50 [nM] | SMILES
19 | 0.1 | COc1cc(-c2[nH]c(-c3ccccc3)nc2-c2ccnc(NCCNS(=O)(=O)C3CC3)n2)cnc1N [Compound 88, N-(2-(4-(5-(6-amino-5-methoxypyridin-3-yl)-2-phenyl-1H-imidazol-4-yl)pyrimidin-2-ylamino)ethyl)cyclopro-panesulfonamide]
20 | 1.7 | COc1cc(-c2[nH]c(-c3ccc(S(N)(=O)=O)cc3)nc2-c2ccncc2)cnc1N [Compound 121, 4-(5-(6-amino-5-methoxypyridin-3-yl)-4-(pyridin-4-yl)-1H-imidazol-2-yl)benzenesulfonamide]
21 | 0.7 | COc1cc(-c2[nH]c(-c3ccc4[nH]ncc4c3)nc2-c2ccncc2)cnc1N [Compound 167, 5-(2-(1H-indazol-5-yl)-4-(pyridin-4-yl)-1H-imidazol-5-yl)-3-methoxypyridin-2-amine]
22 | 4.4 | COc1cc(-c2[nH]c(-c3ccccc3)nc2-c2ccnc(N[C@@H]3CCCN(S(=O)(=O)C4CC4)C3)n2)cnc1N [Compound 91, (R)-4-(5-(6-amino-5-methoxypyridin-3-yl)-2-phenyl-1H-imidazol-4-yl)-N-(1-(cyclopropylsulfonyl)piper-idin-3-yl)pyrimidin-2-amine]
23 | 4.6 | CC[C@H](C)Nc1nccc(-c2nc(-c3ccc(F)cc3)[nH]c2-c2cnc(N)c(OC)c2)n1 [Compound 176, (S)-4-(5-(6-amino-5-methoxypyridin-3-yl)-2-(4-fluorophenyl)-1H-imidazol-4-yl)-N-sec-butylpyrimidin-2-amine]
24 | 8 | COc1cc(-c2[nH]c(-c3ccc(F)cc3)nc2-c2ccnc(N[C@H]3CCN(C(C)=O)C3)n2)cnc1N [Compound 194, (S)-1-(3-(4-(5-(6-amino-5-methoxypyridin-3-yl)-2-(4-fluorophenyl)-1H-imidazol-4-yl)pyrimidin-2-ylamino)pyrrolidin-1-yl)ethanone]
25 | 1.5 | COc1cc(-c2[nH]c(-c3ccc(F)c(C=O)c3)nc2-c2ccncc2)cnc1N [Compound 148, 5-(5-(6-amino-5-methoxypyridin-3-yl)-4-(pyridin-4-yl)-1H-imidazol-2-yl)-2-fluorobenzaldehyde]
26 | 1.2 | COc1cc(-c2[nH]c(-c3cc(C)ccc3F)nc2-c2ccncc2)cnc1N [Compound 139, 5-(2-(2-fluoro-5-methylphenyl)-4-(pyridin-4-yl)-1H-imidazol-5-yl)-3-methoxypyridin-2-amine]
27 | 2.2 | COCCNc1nccc(-c2nc(-c3ccc(F)cc3)[nH]c2-c2cnc(N)c(OC)c2)n1 [Compound 161, 4-(5-(6-amino-5-methoxypyridin-3-yl)-2-(4-fluorophenyl)-1H-imidazol-4-yl)-N-(2-methoxyethyl)pyrimidin-2-amine]
28 | 2.5 | COc1cc(-c2[nH]c(-c3ccc(F)cc3)nc2-c2ccnc(NC3CCN(S(=O)(=O)C4CC4)CC3)n2)cnc1N [Compound 95, 4-(5-(6-amino-5-methoxypyridin-3-yl)-2-(4-fluorophenyl)-1H-imidazol-4-yl)-N-(1-(cyclopropylsulfonyl)piper-idin-4-yl)pyrimidin-2-amine]
29 | 1 | COCCCNc1nccc(-c2nc(-c3ccc(F)cc3)[nH]c2-c2cnc(N)c(OC)c2)n1 [Compound 179, 4-(5-(6-amino-5-methoxypyridin-3-yl)-2-(4-fluorophenyl)-1H-imidazol-4-yl)-N-(3-methoxypropyl)pyrimidin-2-amine]

Source: patent US20100003246A1, “Novel heterocyclic compounds and uses therof” (priority 2008, published 2010)
